Laboratory results reported in publication PMC4376459, “CXCR3 antagonist VUF10085 binds to an intrahelical site distinct from that of the broad spectrum antagonist TAK-779” (British Journal of Pharmacology, 2015).
Where a chain is given by its changes, count along the chain named.

Key:
WT CXCR3 = target: T1, WT CXCR3 (Homo sapiens, UniProt P49682); test: Chemotaxis assay, L1.2 transfectants migrating to CXCL11; type: cell-based
T1 construct: expressed in transfected cells; host or cells: murine pre-B cell line L1.2, transient transfection by electroporation
T1 sequence (P49682 1-368): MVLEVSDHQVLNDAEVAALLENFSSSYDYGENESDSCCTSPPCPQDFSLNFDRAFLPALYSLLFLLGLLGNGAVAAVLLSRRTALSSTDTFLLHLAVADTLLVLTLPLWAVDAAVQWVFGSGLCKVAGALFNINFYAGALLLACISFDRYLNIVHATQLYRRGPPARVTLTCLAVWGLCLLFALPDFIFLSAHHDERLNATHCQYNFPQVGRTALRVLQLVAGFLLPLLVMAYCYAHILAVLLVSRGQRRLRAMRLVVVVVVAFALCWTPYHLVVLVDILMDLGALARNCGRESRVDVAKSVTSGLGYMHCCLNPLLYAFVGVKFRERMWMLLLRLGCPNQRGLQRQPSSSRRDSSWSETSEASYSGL

CXCR3 I279A [1] = target: T2, CXCR3 I279A (Homo sapiens, UniProt P49682, I279A); test: as above; type: cell-based
T2 construct: expressed in transfected cells; host or cells: murine pre-B cell line L1.2, transient transfection
T2 sequence (P49682 1-368 I279A): T1 sequence (P49682 1-368) with I279A

CXCR3 Y60A = target: T3, CXCR3 Y60A (Homo sapiens, UniProt P49682, Y60A); test: as above; type: cell-based
T3 construct: expressed in transfected cells; host or cells: murine pre-B cell line L1.2, transient transfection
T3 sequence (P49682 1-368 Y60A): T1 sequence (P49682 1-368) with Y60A

CXCR3 F131A = target: T4, CXCR3 F131A (Homo sapiens, UniProt P49682, F131A); test: as above; type: cell-based
T4 construct: expressed in transfected cells; host or cells: murine pre-B cell line L1.2, transient transfection
T4 sequence (P49682 1-368 F131A): T1 sequence (P49682 1-368) with F131A

CXCR3 H202A (ECL2) = target: T5, CXCR3 H202A (ECL2) (Homo sapiens, UniProt P49682, H202A); test: as above; type: cell-based
T5 construct: expressed in transfected cells; host or cells: murine pre-B cell line L1.2, transient transfection
T5 sequence (P49682 1-368 H202A): T1 sequence (P49682 1-368) with H202A

CXCR3 I279A [2] = target: T2, CXCR3 I279A; test: Whole-cell 125I-CXCL11 binding assay, L1.2 transfectants; details: I279A, 0.1 nM 125I-CXCL11; read-out: IC50 ligand binding (mean ± SEM)
[3] = system: six 'loss of charge' CXCR3 mutants; test: Chemotaxis assay, panel of charged extracellular residue mutants; type: cell-based, human; details: 30 nM CXCL11, 100 μM TAK-779, versus WT
Experimental: Assays of chemotactic responsiveness were carried out as previously described (Vaidehi et al., [2009]) using 96-well ChemoTx® plates with 5 μm pores (Neuroprobe, Gaithersburg, MD, USA). Migrating cells were detected by the use of CellTiter Glo® Dye (Promega, Southampton, UK) and resulting luminescence measured using a TopCount scintillation counter (PerkinElmer, Waltham, MA, USA). Basal migration of cells to buffer alone was subtracted from the resulting data, with individual results expressed as a percentage of the total cells applied to the filter. In all experiments, each data point was assayed in duplicate. In every experiment, cells transiently expressing WT CXCR3 were used as a positive control.
We have previously used an alternative panel of six ‘loss of charge’ CXCR3 mutants to determine the counterion for a negatively charged small molecule CXCR3 agonist (Nedjai et al., [2011]). Although these acidic residues lay outside our initially molecular modelling of the TAK-779:CXCR3 interaction, we tested the hypothesis that one or more of these acidic residues may contribute to TAK-779 binding. […]
Figure 6 Mutation of charged extracellular residues has no effect upon the ability of TAK-779 to inhibit chemotaxis in response to CXCL11. Migration of a panel of CXCR3 transfectants to 30 nM CXCL11 in the presence of 100 μM TAK-779 was determined.

[4] = 30 nM CXCL11, read-out: IC50 chemotaxis (mean ± SEM)

optimum concentration of bell-shaped chemotaxis response (WT CXCR3; WT CXCR3) [nM] | % of WT chemotaxis to 30 nM CXCL11 (mean ± SEM) (WT CXCR3; WT CXCR3, 30 nM CXCL11) [%] | % of WT chemotaxis to 30 nM CXCL11 (mean ± SEM) (CXCR3 I279A [1]) [%] | % of WT chemotaxis to 30 nM CXCL11 (mean ± SEM) (CXCR3 Y60A) [%] | % of WT chemotaxis to 30 nM CXCL11 (mean ± SEM) (CXCR3 F131A) [%] | % of WT chemotaxis to 30 nM CXCL11 (mean ± SEM) (CXCR3 H202A (ECL2); H202A) [%] | IC50 (WT CXCR3; WT CXCR3, 30 nM CXCL11, read-out: IC50 chemotaxis (mean ± SEM)) [µM] | IC50 (CXCR3 I279A [1]; [4]) [µM] | IC50 (CXCR3 I279A [2]) [µM] | IC50 (CXCR3 Y60A; [4]) [µM] | IC50 (CXCR3 F131A; [4]) [µM] | IC50 (CXCR3 H202A (ECL2); H202A (ECL2), 30 nM CXCL11, read-out: IC50 chemotaxis (mean ± SEM)) [µM] | increase in IC50 value, chemotaxis (CXCR3 H202A (ECL2); H202A versus WT, 30 nM CXCL11) | Compound | ability to inhibit migration to CXCL11 [3]
30 | 100 ± 4.32 | 51.3 ± 6.2 | 55.4 ± 16.4 | 53.7 ± 5.6 | 66.0 ± 34.8 | – | – | – | – | – | – | – | CXCL11: recombinant human chemokine, CXCR3 agonist, purchased from PeproTech | –
– | – | – | – | – | – | 15.8 ± 3.1 | 10.5 ± 3.35 | 39.4 ± 15 | 10.2 ± 4.62 | 15 ± 6.98 | 32.7 ± 14 | twofold | Cc1ccc(-c2ccc3c(c2)C=C(C(=O)Nc2ccc(C[N+](C)(C)C4CCOCC4)cc2)CCC3)cc1.[Cl-] [TAK-779, N,N-dimethyl-N-[4-[[[2-(4-methylphenyl)-6,7-dihydro-5H-benzocyclohepten-8-yl]-carbonyl]amino]benzyl] tetrahydro-2H-pyran-4-aminium chloride] | not reduced
